Molecular target: T1, RANTES/MIP-1α chemokine receptor (CCR1) in THP-1 cell membranes (Homo sapiens, UniProt P32246)
T1 construct: Membranes were prepared from THP-1 cells (ATCC #TIB202); host or cells: THP-1 cells (membrane preparation)
T1 sequence (P32246 1-355): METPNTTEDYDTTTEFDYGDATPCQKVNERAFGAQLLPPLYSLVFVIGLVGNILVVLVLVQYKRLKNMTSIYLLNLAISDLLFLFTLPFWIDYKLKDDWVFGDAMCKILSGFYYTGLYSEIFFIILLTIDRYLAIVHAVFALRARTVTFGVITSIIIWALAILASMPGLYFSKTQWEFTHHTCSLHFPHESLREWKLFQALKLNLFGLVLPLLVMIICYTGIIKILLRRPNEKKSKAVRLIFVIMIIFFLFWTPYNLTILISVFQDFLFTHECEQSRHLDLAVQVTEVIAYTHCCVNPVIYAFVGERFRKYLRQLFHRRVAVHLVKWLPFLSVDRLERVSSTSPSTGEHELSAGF
Experiment: Receptor binding assay: 125I-RANTES or 125I-MIP-1α binding to THP-1 cell membranes
Conditions: inhibitor concentration required for 50% inhibition of specific binding; 125I-RANTES or 125I-MIP-1α as ligand, THP-1 cell membranes; read-out: IC50

“4-Azido-4-(4-chlorophenyl)-1-[3-(5,11-dihydro-7-methoxy[1]benzoxepino[2,3-b]pyridin-5-ylidene)propyl]piperidine [Example 187]” was tested. Which IC50 did it give?
The IC50 was under 1000 nM.

Which IC50 does the source give for “1-[3-(7-(1-Carboxy-1-methylethyl)oxy-5,11-dihydro[1]benzoxepino[2,3-b]pyridin-5-ylidene)propyl]-4-(4-chlorophenyl)piperidine [Example 159]” here?
Its IC50 is under 1000 nM.

How did the IC50 turn out when `CC(C)(O)c1ccc2c(c1)C(=CCCN1CCC(N(Cc3ccc(Cl)cc3)C(=O)NC3CCCCC3)C1)c1cccnc1CO2` (centres unmarked) [Example 568, 1-(4-Chloro-benzyl)-3-cyclohexyl-1-(1-{3-[7-(1-hydroxy-1-methyl-ethyl)-11H-10-oxa-1-aza-dibenzo[a,d]cyclohepten-5-ylidene]-propyl}-pyrrolidin-3-yl)-urea] was run?
Its IC50 is under 1000 nM.

With `CC(C)(O)c1ccc2c(c1)C(=CCCN1CCN(c3ccc(Cl)cc3)C(C(N)=O)C1)c1cccnc1CO2` (centres unmarked) [Example 544, 1-(4-Chloro-phenyl)-4-{3-[7-(1-hydroxy-1-methyl-ethyl)-11H-10-oxa-1-aza-dibenzo[a,d]cyclohepten-5-ylidene]-propyl}-piperazine-2-carboxylic acid amide] as the molecule, how does the IC50 read?
Its IC50 is under 10000 nM.

“4-(4-Bromophenyl)-1-[3-(5,11-dihydro-7-methoxy[1]benzoxepino[2,3-b]pyridin-5-ylidene)propyl]piperidin-4-ol [Example 60]” was tested. Which IC50 did it give?
The IC50 was under 1000 nM.

With `COc1ccc2c(c1)C(=CCCN1CCC(O)(c3ccccc3)CC1)c1cccnc1CO2` [Example 59, 1-[3-(5,11-Dihydro-7-methoxy[1]benzoxepino[2,3-b]pyridin-5-ylidene)propyl]piperidin-4-phenyl-4-ol] as the molecule, how does the IC50 read?
Its IC50 is under 1000 nM.

How did the IC50 turn out when `COC(=O)c1ccc2c(c1)C(=CCCN1CCC(O)(c3ccc(Cl)cc3)CC1)c1cccnc1CO2` [Example 273] was run?
Its IC50 is under 1000 nM.

For `CC(C)(O)c1ccc2c(c1)C(=CCCN1CCC(c3ccc(Cl)cc3)(C(C)(C)O)CC1)c1cccnc1CO2` [Example 463, 2-(5-{3-[4-(4-Chloro-phenyl)-4-(1-hydroxy-1-methyl-ethyl)-piperidin-1-yl]-propylidene}-5,11-dihydro-10-oxa-1-aza-dibenzo[a,d]cyclohepten-7-yl)-propan-2-ol], which IC50 is on record?
Its IC50 is under 10000 nM.

How did the IC50 turn out when “4-(4-Chlorophenyl)-1-[3-(5,11-dihydro-7-dimethylaminocarbonylmethyloxy[1]benzoxepino[2,3-b]pyridin-5-ylidene)propyl]piperidin-4-ol [Example 134]” was run?
Its IC50 is under 1000 nM.

With `OC1(c2ccc(Cl)cc2)CCN(CCC=C2c3cc(Br)ccc3OCc3ccsc32)CC1` [Example 38, 1-[3-(8-Bromo-4,10-dihydrothieno[3,2-c][1]benzoxepin-10-ylidene)propyl]piperidin-4-(4-chlorophenyl)-4-ol] as the molecule, how does the IC50 read?
Its IC50 is under 1000 nM.

For `CNC(=O)C(C)(C)Oc1ccc2c(c1)C(=CCCN1CCC(O)(c3ccc(Cl)cc3)CC1)c1cccnc1CO2` [Example 212, 4-(4-Chlorophenyl)-1-[3-(5,11-dihydro-7-(1-methylaminocarbonyl-1-methyl)ethyloxy[1]benzoxepino[2,3-b]pyridin-5-ylidene)propyl]piperidin-4-ol], which IC50 is on record?
The IC50 was under 1000 nM.

With “1-[3-(5,11-Dihydro-7-methoxy[1]benzoxepino[2,3-b]pyridin-5-ylidene)propyl]-4-(3-pyridyl)piperidin-4-ol [Example 148]” as the molecule, how does the IC50 read?
The IC50 was under 10000 nM.

How did the IC50 turn out when `O=C(O)COc1ccc2c(c1)C(=CCCN1CCC(c3ccc(Cl)cc3)CC1)c1cccnc1CO2` [Example 154] was run?
The IC50 was under 1000 nM.

How did the IC50 turn out when `O=C(OCCN1CCOCC1)c1ccc2c(c1)C(=CCCN1CCC(O)(c3ccc(Cl)cc3)CC1)c1cccnc1CO2` [Example 430, 4-(4-Chlorophenyl)-1-[3-(5,11-dihydro-7-(2-morpholinoethyl-1-yl)-oxycarbonyl-[1]benzoxepino[2,3-b]pyridin-5-ylidene)propyl]piperidine-4-ol] was run?
The IC50 was under 1000 nM.

— patent US8653096B2, “Chemokine receptor antagonists and methods of use thereof” (Millennium Pharmaceuticals, Inc., priority 2001, dated 2014)
